Assays:
Format in all cases: in vivo
[1] = tested on: Rox orange sorghum (Sorghum bicolor); assay: Postemergence herbicidal activity; details: scored after 2 weeks, 0 no injury, 100 complete kill
Procedure: (§1) Seeds of the desired test plant species were planted in Grace-Sierra MetroMix® 306 planting mixture, which typically has a pH of 6.0 to 6.8 and an organic matter content of about 30 percent, in plastic pots with a surface area of 64 square centimeters. When required to ensure good germination and healthy plants, a fungicide treatment and/or other chemical or physical treatment was applied. The plants were grown for 7-21 days in a greenhouse with an approximately 15 hr photoperiod which was maintained at about 23-29° C. during the day and 22-28° C. during the night. Nutrients and water were added on a regular basis and supplemental lighting was provided with overhead metal halide 1000 Watt lamps as necessary. The plants were employed for testing when they reached the first or second true leaf stage. A weighed amount of each test compound, determined by the highest rate to be tested, was placed in a 20 mL glass vial and was dissolved in 4 mL of a 97:3 v/v (volume/volume) mixture of acetone and dimethyl sulfoxide to obtain concentrated stock solutions. […] The concentrated stock solutions obtained were diluted with an aqueous mixture containing acetone, water, iso-propyl alcohol, dimethyl sulfoxide, Atplus 411F crop oil concentrate, and Triton X-155 surfactant (methylenebisdiamyl phenoxy polyethoxy ethanol) in a 48.5:39:10:1.5:1.0:0.02 v/v ratio to obtain spray solutions of known concentration. The solutions containing the highest concentration to be tested were prepared by diluting 2 mL aliquots of the stock solution with 13 mL of the mixture and lower concentrations were prepared by dilution of appropriate smaller portions of the stock solution. Approximately 1.5 mL aliquots of each solution of known concentration were sprayed evenly onto each of the test plant pots using a Devilbiss atomizer driven by compressed air pressure of 2 to 4 psi (140 to 280 kiloPascals) to obtain thorough coverage of each plant. Control plants were sprayed in the same manner with the aqueous mixture. In this test an application rate of 1 ppm results in the application of approximately 1 g/ha. The treated plants and control plants were placed in a greenhouse as described above and watered by sub-irrigation to prevent wash-off of the test compounds. After 2 weeks the condition of the test plants as compared with that of the untreated plants was determined visually and scored on a scale of 0 to 100 percent where 0 corresponds to no injury and 100 corresponds to complete kill.

[2] = tested on: blackgrass (Alopecurus myosuroides); assay: Postemergence herbicidal activity; details: scored after 2 weeks, 0 no injury, 100 complete kill
Procedure: as §1

[3] = tested on: chickweed (Stellaria media); assay: Postemergence herbicidal activity; details: scored after 2 weeks, 0 no injury, 100 complete kill
Procedure: as §1

[4] = tested on: cocklebur (Xanthium strumarium); assay: Postemergence herbicidal activity; details: scored after 2 weeks, 0 no injury, 100 complete kill
Procedure: as §1

[5] = tested on: giant foxtail (Setaria faberi); assay: Postemergence herbicidal activity; details: scored after 2 weeks, 0 no injury, 100 complete kill
Procedure: as §1

[6] = tested on: lambsquarters (Chenopodium album); assay: Postemergence herbicidal activity; details: scored after 2 weeks, 0 no injury, 100 complete kill
Procedure: as §1

[7] = tested on: morningglory (Ipomoea hederacea); assay: Postemergence herbicidal activity; details: scored after 2 weeks, 0 no injury, 100 complete kill
Procedure: as §1

[8] = tested on: pigweed (Amaranthus retroflexus); assay: Postemergence herbicidal activity; details: scored after 2 weeks, 0 no injury, 100 complete kill
Procedure: as §1

[9] = tested on: velvetleaf (Abutilion theophrasti); assay: Postemergence herbicidal activity; details: scored after 2 weeks, 0 no injury, 100 complete kill
Procedure: as §1

[10] = tested on: viola (Viola tricolor); assay: Postemergence herbicidal activity; details: scored after 2 weeks, 0 no injury, 100 complete kill
Procedure: as §1

[11] = tested on: wild buckwheat (Polygonum convolvulus); assay: Postemergence herbicidal activity; details: scored after 2 weeks, 0 no injury, 100 complete kill
Procedure: as §1

[12] = tested on: wild oats (Avena fatua); assay: Postemergence herbicidal activity; details: scored after 2 weeks, 0 no injury, 100 complete kill
Procedure: as §1

[13] = tested on: Rox orange sorghum (Sorghum bicolor); assay: Preemergence herbicidal activity; details: scored after 3 weeks, 0 no injury, 100 complete kill or no germination
Procedure: (§2) The soil matrix was contained in plastic pots with a surface area of 161 square centimeters. When required to ensure good germination and healthy plants, a fungicide treatment and/or other chemical or physical treatment was applied. A weighed amount, determined by the highest rate to be tested, of each test compound was placed in a 20 mL glass vial and was dissolved in 8 mL of a 97:3 v/v (volume/volume) mixture of acetone and dimethyl sulfoxide to obtain concentrated stock solutions. […] The stock solutions obtained were diluted with a 99.9:0.1 mixture of water and Tween® 155 surfactant (ethoxylated sorbitan fatty acid ester) to obtain application solutions of known concentration. The solutions containing the highest concentration to be tested were prepared by diluting 4 mL aliquots of the stock solution with 8.5 mL of the mixture and lower concentrations were prepared by dilution of appropriate smaller portions of the stock solution. A 2.5 mL aliquot of each solution of known concentration was sprayed evenly onto the soil of each seeded pot using a Cornwall 5.0 mL glass syringe fitted with a TeeJet TN-3 hollow cone nozzle to obtain thorough coverage of the soil in each pot. Control pots were sprayed in the same manner with the aqueous mixture. A highest application rate of 4.48 kg/ha is achieved when 50 mg of test compound is employed. The treated pots and control pots were placed in a greenhouse with an approximately 15 hr photoperiod which was maintained at about 23-29° C. during the day and 22-28° C. during the night. Nutrients and water were added on a regular basis and supplemental lighting was provided with overhead metal halide 1000 Watt lamps as necessary. The water was added by top-irrigation. After 3 weeks the condition of the test plants that germinated and grew as compared with that of the untreated plants that germinated and grew was determined visually and scored on a scale of 0 to 100 percent where 0 corresponds to no injury and 100 corresponds to complete kill or no germination.

[14] = tested on: barnyardgrass (Echinochloa crus-galli); assay: Preemergence herbicidal activity; details: scored after 3 weeks, 0 no injury, 100 complete kill or no germination
Procedure: as §2

[15] = tested on: blackgrass (Alopecurus myosuroides); assay: Preemergence herbicidal activity; details: scored after 3 weeks, 0 no injury, 100 complete kill or no germination
Procedure: as §2

[16] = tested on: cocklebur (Xanthium strumarium); assay: Preemergence herbicidal activity; details: scored after 3 weeks, 0 no injury, 100 complete kill or no germination
Procedure: as §2

[17] = tested on: crabgrass (Digitaria sanguinalis); assay: Preemergence herbicidal activity; details: scored after 3 weeks, 0 no injury, 100 complete kill or no germination
Procedure: as §2

[18] = tested on: giant foxtail (Setaria faberi); assay: Preemergence herbicidal activity; details: scored after 3 weeks, 0 no injury, 100 complete kill or no germination
Procedure: as §2

[19] = tested on: lambsquarters (Chenopodium album); assay: Preemergence herbicidal activity; details: scored after 3 weeks, 0 no injury, 100 complete kill or no germination
Procedure: as §2

[20] = tested on: morningglory (Ipomoea hederacea); assay: Preemergence herbicidal activity; details: scored after 3 weeks, 0 no injury, 100 complete kill or no germination
Procedure: as §2

[21] = tested on: pigweed (Amaranthus retroflexus); assay: Preemergence herbicidal activity; details: scored after 3 weeks, 0 no injury, 100 complete kill or no germination
Procedure: as §2

[22] = tested on: velvetleaf (Abutilion theophrasti); assay: Preemergence herbicidal activity; details: scored after 3 weeks, 0 no injury, 100 complete kill or no germination
Procedure: as §2

[23] = tested on: wild oats (Avena fatua); assay: Preemergence herbicidal activity; details: scored after 3 weeks, 0 no injury, 100 complete kill or no germination
Procedure: as §2

[24] = tested on: wild poinsettia (Euphorbia heterophylla); assay: Preemergence herbicidal activity; details: scored after 3 weeks, 0 no injury, 100 complete kill or no germination
Procedure: as §2

COc1cc(OC)n2nc(NS(=O)(=O)c3c(OCC(F)(F)F)cccc3C(F)(F)F)nc2n1 [Compound 12]
30%: Preemergence herbicidal activity AVEFA ([23]; 17.5 g/Ha)
60%: Postemergence herbicidal activity ALOMY ([2]; 62.5 ppm)
90%: Postemergence herbicidal activity SORBI ([1]; 62.5 ppm) | Postemergence herbicidal activity STEME ([3]; 62.5 ppm) | Preemergence herbicidal activity SETFA ([18]; 17.5 g/Ha) | Preemergence herbicidal activity IPOHE ([20]; 17.5 g/Ha) | Preemergence herbicidal activity EPHHL ([24]; 17.5 g/Ha)
70%: Postemergence herbicidal activity AVEFA ([12]; 62.5 ppm) | Preemergence herbicidal activity ALOMY ([15]; 17.5 g/Ha) | Preemergence herbicidal activity ABUTH ([22]; 17.5 g/Ha)
80%: Preemergence herbicidal activity XANST ([16]; 17.5 g/Ha) | Preemergence herbicidal activity DIGSA ([17]; 17.5 g/Ha)
100%: Postemergence herbicidal activity XANST ([4]; 62.5 ppm) | Postemergence herbicidal activity CHEAL ([6]; 62.5 ppm) | Postemergence herbicidal activity AMARE ([8]; 62.5 ppm) | Postemergence herbicidal activity VIOTR ([10]; 62.5 ppm) | Preemergence herbicidal activity ECHCG ([14]; 17.5 g/Ha) | Preemergence herbicidal activity CHEAL ([19]; 17.5 g/Ha)
98%: Postemergence herbicidal activity SETFA ([5]; 62.5 ppm) | Postemergence herbicidal activity IPOHE ([7]; 62.5 ppm) | Postemergence herbicidal activity ABUTH ([9]; 62.5 ppm) | Postemergence herbicidal activity POLCO ([11]; 62.5 ppm) | Preemergence herbicidal activity SORBI ([13]; 17.5 g/Ha) | Preemergence herbicidal activity AMARE ([21]; 17.5 g/Ha)

COc1cc(OC)n2nc(NS(=O)(=O)c3cc(Cl)ccc3OCCF)nc2n1 [Compound 13]
60%: Preemergence herbicidal activity ABUTH ([22]; 35 g/Ha)
95%: Postemergence herbicidal activity AMARE ([8]; 31.3 ppm) | Preemergence herbicidal activity SORBI ([13]; 35 g/Ha) | Preemergence herbicidal activity ALOMY ([15]; 35 g/Ha) | Preemergence herbicidal activity SETFA ([18]; 35 g/Ha) | Preemergence herbicidal activity CHEAL ([19]; 35 g/Ha) | Preemergence herbicidal activity AMARE ([21]; 35 g/Ha)
70%: Postemergence herbicidal activity CHEAL ([6]; 31.3 ppm) | Postemergence herbicidal activity IPOHE ([7]; 31.3 ppm) | Postemergence herbicidal activity ABUTH ([9]; 31.3 ppm)
100%: Preemergence herbicidal activity DIGSA ([17]; 35 g/Ha)
85%: Postemergence herbicidal activity ALOMY ([2]; 31.3 ppm) | Postemergence herbicidal activity STEME ([3]; 31.3 ppm) | Preemergence herbicidal activity AVEFA ([23]; 35 g/Ha)
75%: Postemergence herbicidal activity AVEFA ([12]; 31.3 ppm)
80%: Postemergence herbicidal activity VIOTR ([10]; 31.3 ppm) | Postemergence herbicidal activity POLCO ([11]; 31.3 ppm) | Preemergence herbicidal activity ECHCG ([14]; 35 g/Ha)
50%: Preemergence herbicidal activity XANST ([16]; 35 g/Ha) | Preemergence herbicidal activity IPOHE ([20]; 35 g/Ha) | Preemergence herbicidal activity EPHHL ([24]; 35 g/Ha)
90%: Postemergence herbicidal activity SORBI ([1]; 31.3 ppm) | Postemergence herbicidal activity XANST ([4]; 31.3 ppm) | Postemergence herbicidal activity SETFA ([5]; 31.3 ppm)

From patent publication US6559101B2, “N- (5, 7-dimethoxy [1, 2, 4] triazolo [1, 5-a] pyrimidin-2-yl) arylsulfonamide compounds and their use as herbicides” (Dow AgroSciences LLC, priority 2000, dated 2003)
